What was measured:
[1] = biological target: T1, 5-HT7 receptors (Homo sapiens, UniProt P34969); test: HitHunter cAMP enzyme fragment complementation assay, antagonist activity in presence of 5-HT (Kb); format: cell-based; parameters: expressed in transfected cells; kept under G418 selection; settings: antagonist mode vs EC70 5-HT
Description: Functional efficacy of the compounds of the disclosure on 5-HT7 serotonin receptors were measured in a cell based cAMP enzyme fragment complementation assay using the HitHunter cAMP assay (DiscoveRx). Cells stably expressing human 5HT7 receptors were plated in 96-well plates at 4000 cells/well, 16-20 hours prior to assay in growth media (Ultraculture medium, 2 mM GlutaMax and G418 1 mg/mL. Serial dilutions of the agonist, 5-hydroxytryptamine (5-HT), were prepared in a final concentration range of 10 μM to 10 nM. Compounds of the disclosure were prepared in 3-fold serial dilutions to obtain a final concentration range of 10 μM to 0.1 nM. Compounds of the disclosure are tested for agonist activity in the absence of 5-HT and antagonist activity in the presence of 5-HT. For the cAMP assay, the protocol was followed according to the instructions provided by the supplier. Briefly, cells were incubated with a compound of the disclosure for 30 minutes at 37° C. prior to addition of EC70 concentration of 5-HT. After an additional 30 minutes, cAMP antibody/cell lysis solution was added (20 μL/well) and incubated for 60 minutes at room temperature, cAMP XS+EA reagent is added (20 μL/well) and incubated for 2 hours at room temperature. Luminescence was read on the Envision Multilabel plate reader.

[2] = biological target: T1, 5-HT7 receptors; test: Radiolabeled binding ([3H]LSD competition), membranes of cells expressing recombinant 5-HT7 receptors; parameters: expressed in transfected cells; settings: for Ki: [3H]LSD radioligand binding; for inhibition at 0.1 µM: read-out: 5-HT7 % Inhib. @ 0.1 uM (Ki column)
Description: ^1Radiolabeled Binding (IC50 and K1)
A solution of the compound of the disclosure to be tested was prepared as a 1-mg/ml stock in Assay Buffer or DMSO according to its solubility. A similar stock of the reference compound chlorpromazine was also prepared as a positive control. Eleven dilutions (5×assay concentration) of the compound of the disclosure and chlorpromazine were prepared in the Assay Buffer by serial dilution to yield final corresponding assay concentrations ranging from 10 pM to 10 μM.
A stock concentration of 5 nM [^3H]LSD (lysergic acid diethyl amide) was prepared in 50 mM Tris-HCl, 10 mM MgCl2, 1 mM EDTA, pH 7.4 (Assay Buffer). Aliquots (50 μl) of radioligand were dispensed into the wells of a 96-well plate containing 100 μl of Assay Buffer. Duplicate 50-μl aliquots of the compound of the disclosure test and chlorpromazine positive control reference compound serial dilutions were added.
Membrane fractions of cells expressing recombinant 5-HT7 receptors (50 μL) were dispensed into each well. The membranes were prepared from stably transfected cell lines expressing 5-HT7 receptors cultured on 10-cm plates by harvesting PBS-rinsed monolayers, resuspending and lysing in chilled, hypotonic 50 mM Tris-HCl, pH 7.4, centrifuging at 20,000×g, decanting the supernatant and storing at −80° C.; the membrane preparations were resuspended in 3 ml of chilled Assay Buffer and homogenized by several passages through a 26 gauge needle before using in the assay.
The 250-μl reactions were incubated at room temperature for 1.5 hours, then harvested by rapid filtration onto 0.3% polyethyleneimine-treated, 96-well filter mats using a 96-well Filtermate harvester. Four rapid 500-μl washes were performed with chilled Assay Buffer to reduce non-specific binding. The filter mats were dried, then scintillant is added to the filters and the radioactivity retained on the filters was counted in a Microbeta scintillation counter.
Raw data (dpm) representing total radioligand binding (i.e., specific+non-specific binding) was plotted as a function of the logarithm of the molar concentration of the competitor (i.e., test or reference compound). Non-linear regression of the normalized (i.e., percent radioligand binding compared to that observed in the absence of test or reference compound) raw data was performed in Prism 4.0 (GraphPad Software) using the built-in three parameter logistic model describing ligand competition binding to radioligand-labeled sites:
y=bottom+[(top−bottom)/(1+10×−log IC50)]
where bottom equals the residual radioligand binding measured in the presence of 10 μM reference compound (i.e., non-specific binding) and top equals the total radioligand binding observed in the absence of competitor. The log IC50 (i.e., the log of the ligand concentration that reduces radioligand binding by 50%) was thus estimated from the data and used to obtain the Ki by applying the Cheng-Prusoff approximation:
where [ligand] equals the assay radioligand concentration and KD equals the affinity constant of the radioligand for the target receptor. Functional Data (Kb)

T1 sequence (P34969 whole entry, the tested form may be a part): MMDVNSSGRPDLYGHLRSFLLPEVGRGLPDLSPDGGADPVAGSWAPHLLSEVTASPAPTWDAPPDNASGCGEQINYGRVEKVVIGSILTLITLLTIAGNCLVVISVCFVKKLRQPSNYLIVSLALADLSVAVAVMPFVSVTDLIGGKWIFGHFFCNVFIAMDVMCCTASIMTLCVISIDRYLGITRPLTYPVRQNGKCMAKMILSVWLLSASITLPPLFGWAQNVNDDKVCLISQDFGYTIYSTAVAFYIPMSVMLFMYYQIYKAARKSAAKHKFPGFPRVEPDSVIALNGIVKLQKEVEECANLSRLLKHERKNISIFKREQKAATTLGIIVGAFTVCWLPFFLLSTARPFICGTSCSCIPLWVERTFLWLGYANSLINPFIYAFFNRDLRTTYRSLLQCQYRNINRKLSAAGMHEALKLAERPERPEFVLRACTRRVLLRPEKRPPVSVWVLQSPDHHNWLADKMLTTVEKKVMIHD

Row | Structure (SMILES) | Kb [1] [nM] | Ki [2] [nM] | other results
1 | NCC(=O)N1CCC2(CC1)C[C@H](CCN1CCN(c3cccc(Cl)c3)CC1)NC2=O [Compound A1] | < 10 | – | –
2 | NCC(=O)N1CCC2(CC1)C[C@H](CCN1CCN(c3ccc(F)cc3)CC1)NC2=O [Compound A2] | 10 to 100 | – | –
3 | CC(=O)NCC(=O)N1CCC2(CC1)C[C@H](CCN1CCN(c3cccc(Cl)c3)CC1)NC2=O [Compound A5] | < 10 | – | –
4 | CC(=O)NCC(=O)N1CCC2(CC1)C[C@H](CCN1CCN(c3ccc(F)cc3)CC1)NC2=O [Compound A6] | < 10 | – | –
5 | CS(=O)(=O)NCC(=O)N1CCC2(CC1)C[C@H](CCN1CCN(c3cccc(Cl)c3)CC1)NC2=O [Compound A9] | 10 to 100 | 50 to 200 | –
6 | CS(=O)(=O)NCC(=O)N1CCC2(CC1)C[C@H](CCN1CCN(c3ccc(F)cc3)CC1)NC2=O [Compound A10] | 10 to 100 | 50 to 200 | –
7 | CC(C)(N)C(=O)N1CCC2(CC1)C[C@H](CCN1CCN(c3ccc(F)cc3)CC1)NC2=O [Compound A13] | – | 200 to 500 | –
8 | CC(C)(N)C(=O)N1CCC2(CC1)C[C@H](CCN1CCN(c3cccc(Cl)c3)CC1)NC2=O [Compound A14] | – | 200 to 500 | –
9 | CC(=O)NC(C)(C)C(=O)N1CCC2(CC1)C[C@H](CCN1CCN(c3ccc(F)cc3)CC1)NC2=O [Compound A17] | – | 200 to 500 | –
10 | CC(=O)NC(C)(C)C(=O)N1CCC2(CC1)C[C@H](CCN1CCN(c3cccc(Cl)c3)CC1)NC2=O [Compound A18] | – | 200 to 500 | –
11 | CC(C)(C)C(=O)NC(C)(C)C(=O)N1CCC2(CC1)C[C@H](CCN1CCN(c3ccc(F)cc3)CC1)NC2=O [Compound A21] | – | 50 to 200 | –
12 | CC(C)(C)C(=O)NC(C)(C)C(=O)N1CCC2(CC1)C[C@H](CCN1CCN(c3cccc(Cl)c3)CC1)NC2=O [Compound A22] | – | 50 to 200 | –
13 | CC(C)(C)C(=O)NCC(=O)N1CCC2(CC1)C[C@H](CCN1CCN(c3ccc(F)cc3)CC1)NC2=O [Compound A25] | – | 200 to 500 | –
14 | CC(C)(C)C(=O)NCC(=O)N1CCC2(CC1)C[C@H](CCN1CCN(c3cccc(Cl)c3)CC1)NC2=O [Compound A26] | – | 200 to 500 | –
15 | CN(C)CC(=O)N1CCC2(CC1)C[C@H](CCN1CCN(c3ccc(F)cc3)CC1)NC2=O [Compound A29] | – | ≥ 500 | –
16 | CN(C)CC(=O)N1CCC2(CC1)C[C@H](CCN1CCN(c3cccc(Cl)c3)CC1)NC2=O [Compound A30] | – | 200 to 500 | –
17 | O=C(CN1CCOCC1)N1CCC2(CC1)C[C@H](CCN1CCN(c3ccc(F)cc3)CC1)NC2=O [Compound A33] | – | ≥ 500 | –
18 | O=C(CN1CCOCC1)N1CCC2(CC1)C[C@H](CCN1CCN(c3cccc(Cl)c3)CC1)NC2=O [Compound A34] | – | 200 to 500 | –
19 | CC(=O)N[C@@H](C)C(=O)N1CCC2(CC1)C[C@H](CCN1CCN(c3ccc(F)cc3)CC1)NC2=O [Compound A39] | < 10 | – | –
20 | CC(=O)N[C@@H](C)C(=O)N1CCC2(CC1)C[C@H](CCN1CCN(c3cccc(Cl)c3)CC1)NC2=O [Compound A40] | < 10 | – | –
21 | O=C(c1cccnc1)N1CCC2(CC1)C[C@H](CCN1CCN(c3ccc(F)cc3)CC1)NC2=O [Compound A81] | 100 to 500 | – | –
22 | O=C(Cc1nnn[nH]1)N1CCC2(CC1)C[C@H](CCN1CCN(c3ccc(F)cc3)CC1)NC2=O [Compound A82] | ≥ 500 | – | –
23 | O=C(CN1CCOC1=O)N1CCC2(CC1)C[C@H](CCN1CCN(c3ccc(F)cc3)CC1)NC2=O [Compound A83] | 100 to 500 | – | –

Row | Structure (SMILES) | Kb [1] [nM] | Ki [2] [nM] | other results
24 | O=C(c1cccnn1)N1CCC2(CC1)C[C@H](CCN1CCN(c3ccc(F)cc3)CC1)NC2=O [Compound A84] | 100 to 500 | – | –
25 | CCC1(CC)C[C@H](CCN2CCN(c3ccccc3)CC2)N(C)C1=O [Compound A85] | 10 to 100 | 50 to 200 | –
26 | CCC1(CC)C[C@H](CCN2CCN(c3cccc(Cl)c3)CC2)N(C)C1=O [Compound A86] | < 10 | < 50 | –
27 | CCC1(CC)C[C@H](CCN2CCN(c3ccc(F)cc3)CC2)N(C)C1=O [Compound A87] | 10 to 100 | < 50 | –
28 | CC(=O)N1CCC2(CC1)C[C@H](CCN1CCN(c3ccc(F)cc3)CC1)N(C)C2=O [Compound A88] | 10 to 100 | – | –
29 | CC(=O)N1CCC2(CC1)C[C@H](CCN1CCN(c3cccc(Cl)c3)CC1)N(C)C2=O [Compound A89] | 10 to 100 | – | –
30 | CN1C(=O)C2(CCN(C(=O)C(C)(C)C)CC2)C[C@@H]1CCN1CCN(c2ccc(F)cc2)CC1 [Compound A90] | < 10 | – | –
31 | CN1C(=O)C2(CCN(C(=O)C(C)(C)C)CC2)C[C@@H]1CCN1CCN(c2cccc(Cl)c2)CC1 [Compound A91] | 10 to 100 | – | –
32 | CC(F)(F)C(=O)N1CCC2(CC1)C[C@H](CCN1CCN(c3ccc(F)cc3)CC1)NC2=O [Compound A93] | < 10 | – | –
33 | O=C(CC(F)(F)F)N1CCC2(CC1)C[C@H](CCN1CCN(c3ccc(F)cc3)CC1)NC2=O [Compound A95] | 10 to 100 | – | –
34 | CCC(=O)N1CCC2(CC1)C[C@H](CCN1CCN(c3ccc(F)cc3)CC1)N(C)C2=O [Compound A97] | < 10 | – | –
35 | CC(C)C(=O)N1CCC2(CC1)C[C@H](CCN1CCN(c3ccc(F)cc3)CC1)N(C)C2=O [Compound A98] | 10 to 100 | – | –
36 | CN1C(=O)C2(CCN(C(=O)C3CC3)CC2)C[C@@H]1CCN1CCN(c2ccc(F)cc2)CC1 [Compound A99] | < 10 | – | –
37 | CN1C(=O)C2(CCN(C(=O)C(C)(F)F)CC2)C[C@@H]1CCN1CCN(c2ccc(F)cc2)CC1 [Compound A103] | < 10 | – | –
38 | CC(=O)N1CCC2(CC1)C[C@H](CCN1CCN(c3ccc(F)cc3)C[C@@H]1C)NC2=O [Compound A107] | < 10 | – | inhibition at 0.1 µM [2]: 62%
39 | CC(=O)N1CCC2(CC1)C[C@H](CCN1CCN(c3ccc(F)cc3)C[C@H]1C)NC2=O [Compound A108] | < 10 | – | inhibition at 0.1 µM [2]: 63%
40 | CC(=O)N1CCC2(CC1)C[C@H](CCN1CCN(c3ccc(F)cc3)[C@@H](C)C1)NC2=O [Compound A109] | 10 to 100 | – | inhibition at 0.1 µM [2]: 40%
41 | CC(=O)N1CCC2(CC1)C[C@H](CCN1CCN(c3ccc(F)cc3)[C@H](C)C1)NC2=O [Compound A110] | – | – | inhibition at 1 µM ([2]; read-out: 5-HT7 % Inhib. @ 1 uM (Ki column)): 45%
42 | CC(=O)N[C@@H](C)C(=O)N1CCC2(CC1)C[C@H](CCN1CCN(c3ccc(F)cc3)C[C@H]1C)NC2=O [Compound A123] | < 10 | – | inhibition at 0.1 µM [2]: 64%
43 | COC(=O)N1CCC2(CC1)C[C@H](CCN1CCN(c3ccc(F)cc3)CC1)N(C)C2=O [Compound A124] | 10 to 100 | – | –
44 | CC[C@H](NC(C)=O)C(=O)N1CCC2(CC1)C[C@H](CCN1CCN(c3ccc(F)cc3)CC1)NC2=O [Compound A183] | < 10 | – | –
45 | CC(=O)N[C@H](C(=O)N1CCC2(CC1)C[C@H](CCN1CCN(c3ccc(F)cc3)CC1)NC2=O)C(C)C [Compound A184] | < 10 | – | –

From patent publication US20230002383A1, “NOVEL FUNCTIONALIZED LACTAMS AS MODULATORS OF THE 5-HYDROXYTRYPTAMINE RECEPTOR 7 AND THEIR METHOD OF USE” (Temple University-Of The Commonwealth System of Higher …, priority 2019, published 2023)
